This note sets out measurements from ChEMBL document CHEMBL3603819, “Targeting zoonotic viruses: Structure-based inhibition of the 3C-like protease from bat coronavirus HKU4--The likely reservoir host to the human coronavirus that causes Middle East Respiratory Syndrome (MERS)” (Bioorg Med Chem, 2015).

This assay concerns Tylonycteris bat coronavirus HKU4. Conditions: at 100 µM.
`CC(C)(C)NC(=O)C(c1cccnc1)N(C(=O)Cc1cccc2ccccc12)C1CC1` (stereo not drawn) displayed an inhibition of 11%.

For `CC(C)(C)NC(=O)C(c1ccsc1)N(C(=O)Cn1nnc2ccccc21)c1ccc(NC(=O)C2CC2)cc1` (stereo not drawn), the inhibition stood at 85%.

The compound `CC(=O)Nc1ccc(N(C(=O)Cn2nnc3ccccc32)C(C(=O)NC(C)(C)C)c2cccc(F)c2)cc1` (stereo not drawn) came in with an inhibition of 71%.

For `CC(C)c1ccc(N(C(=O)c2ccc(C#N)cc2)C(C(=O)NC(C)(C)C)c2cccnc2)cc1` (stereo not drawn), the inhibition was determined as 28%.

As for `CC(C)(C)NC(=O)C(c1cccnc1)N(C(=O)c1n[nH]c2ccccc12)c1ccc(OC(F)F)cc1` (stereo not drawn), the inhibition was found to be 24%.

Regarding `CC(C)(C)NC(=O)C(c1cccnc1)N(C(=O)c1ccco1)c1ccc(Cc2ccccc2)cc1` (stereo not drawn), the inhibition was 8%.

For the compound `CC(C)(C)NC(=O)C(c1cccnc1)N(C(=O)c1ccco1)c1ccc(-c2cccn2C(=O)OC(C)(C)C)cc1` (stereo not drawn), the inhibition amounted to 17%.

The compound `CCC(=O)Nc1ccc(N(Cc2ccsc2)C(=O)Cn2nnc3ccccc32)cc1` returned an inhibition of 92%.

As to `CC(C)(C)NC(=O)C(c1ccsc1)N(C(=O)Cn1nnc2ccccc21)c1ccc(C(C)(C)C)cc1` (stereo not drawn), the inhibition was 9%.

The compound `CC(C)(C)NC(=O)C(c1ccsc1)N(C(=O)c1ccc(C(F)(F)F)cn1)c1ccc(F)cc1` (stereo not drawn) had an inhibition of 19%.

The compound `CC(C)(C)NC(=O)[C@@H](c1cccnc1)N(C(=O)c1c[nH]cn1)c1ccc(C(C)(C)C)cc1` returned an inhibition of 93%.

Turning to `COc1ncc(-c2ccc(N(Cc3ccsc3)C(=O)Cn3nnc4ccccc43)cc2)cn1`, the inhibition is 83%.

`COc1ncccc1-c1ccc(N(Cc2ccsc2)C(=O)Cn2nnc3ccccc32)cc1` gave an inhibition of 90%.

In turn, `CC(C)(C)NC(=O)C(c1cccnc1)N(C(=O)c1ccco1)c1ccc(F)cc1` (stereo not drawn) showed an inhibition of 41%.

As for `CCOc1ccc(N(C(=O)c2ccco2)C(C(=O)NC(C)(C)C)c2cccnc2)cc1` (stereo not drawn), the inhibition came to 12%.

On to `CC(=O)Nc1ccc(N(C(=O)Cn2cc(-c3ccccc3)nn2)C(C(=O)NC(C)(C)C)c2ccsc2)cc1` (stereo not drawn), for which the inhibition amounted to 19%.

`CC(C)(C)NC(=O)C(c1cccnc1)N(C(=O)c1ccco1)C1CC2CCC1C2` (stereo not drawn) registered an inhibition of 16%.

`CC(C)(C)NC(=O)C(c1cccnc1)N(C(=O)c1ccc(C(F)(F)F)cn1)c1ccc(F)cc1` (stereo not drawn) displayed an inhibition of 29%.

As to `CC(C)(C)NC(=O)C(c1ccsc1)N(C(=O)c1ccc(C#N)cc1)c1ccc(C(C)(C)C)cc1` (stereo not drawn), the inhibition was found to be 18%.

Consider `CC(=O)Nc1ccc(N(C(=O)Cn2cc([Si](C)(C)C)nn2)C(C(=O)NC(C)(C)C)c2ccsc2)cc1` (stereo not drawn), for which the inhibition was 20%.

The compound `O=C(NCc1ccccc1)C(c1cccc(F)c1)N(C(=O)Cn1nnc2ccccc21)C1CC2CCC1C2` (stereo not drawn) registered an inhibition of 12%.

On to `CC(C)(C)NC(=O)C(c1cccnc1)N(C(=O)c1ccc(C(F)(F)F)nc1)c1ccc(OCF)cc1` (stereo not drawn), for which the inhibition worked out at 15%.

In turn, `CC(C)(C)NC(=O)C(c1cccnc1)N(C(=O)c1ccc(O)cc1)c1ccc(C(C)(C)C)cc1` (stereo not drawn) returned an inhibition of 11%.

As to `CC(C)(C)NC(=O)C(c1ccsc1)N(C(=O)Cc1cccnc1)c1ccc(C(C)(C)C)cc1` (stereo not drawn), the inhibition was 23%.

The compound `CC(=O)Nc1ccc(N(C(=O)Cn2cnc3ccccc32)C(C(=O)NC(C)(C)C)c2ccsc2)cc1` (stereo not drawn) showed an inhibition of 14%.

`O=C(Nc1ccc(N(C(=O)Cn2nnc3ccccc32)C(C(=O)NCc2ccccc2)c2cccc(F)c2)cc1)C1CC1` (stereo not drawn): the inhibition is 71%.

Take `CCC(=O)Nc1ccc(N(C(=O)Cn2ccnc2C)C(C(=O)NC(C)(C)C)c2ccsc2)cc1` (stereo not drawn): the inhibition is 19%.

As for `O=C(Nc1ccc(N(Cc2ccsc2)C(=O)Cn2nnc3ccccc32)cc1)C1CCC1`, the inhibition turned out to be 94%.

With `CC(C)(C)NC(=O)C(c1ccncc1)N(C(=O)c1ccco1)c1ccc(C(C)(C)C)cc1` (stereo not drawn), the inhibition worked out at 28%.

With `CC(C)(C)NC(=O)C(c1cccnc1)N(C(=O)c1ccco1)c1ccc(Oc2ccccc2)cc1` (stereo not drawn), the inhibition is 19%.

Consider `CC(C)(C)NC(=O)C(c1cccnc1)N(C(=O)c1cc[nH]n1)c1ccc(C(C)(C)C)cc1` (stereo in doubt; 124B), for which the inhibition was determined as 17%.

The compound `CC(C)(C)NC(=O)C(c1cccnc1)N(C(=O)c1ccco1)c1ccc(NS(=O)(=O)c2ccccc2)cc1` (stereo not drawn) registered an inhibition of 16%.

`CC(C)c1ccc(N(C(=O)c2ccco2)C(C(=O)NC(C)(C)C)c2cccnc2)cc1` (stereo not drawn) displayed an inhibition of 34%.

With `CCC(=O)Nc1ccc(N(C(=O)Cn2c(C)nc3ccccc32)C(C(=O)NC(C)(C)C)c2ccsc2)cc1` (stereo not drawn), the inhibition turned out to be 8%.

Take `CC(C)(C)NC(=O)C(c1cccnc1)N(C(=O)c1ccc(Cl)cc1)c1ccc(C(C)(C)C)cc1` (stereo not drawn): the inhibition turned out to be 27%.

As to `CC(C)(C)NC(=O)C(c1cccnc1)N(C(=O)c1n[nH]c2ccccc12)c1ccc(C(C)(C)C)cc1` (stereo not drawn), the inhibition came out at 23%.

As for `CC(C)(C)NC(=O)C(c1cccnc1)N(C(=O)C1CCCO1)c1ccc(C(C)(C)C)cc1` (stereo not drawn), the inhibition was 18%.

`CC(=O)Nc1ccc(N(C(=O)Cn2nnc3ccccc32)C(C(=O)NCc2ccccc2)c2cccc(F)c2)cc1` (stereo not drawn) showed an inhibition of 32%.

`CC(=O)Nc1ccc(N(C(=O)Cn2ccnc2C)C(C(=O)NC(C)(C)C)c2ccsc2)cc1` (stereo not drawn) registered an inhibition of 17%.

In turn, `CC(C)(C)NC(=O)C(c1cccnc1)N(C(=O)c1ccco1)c1ccc(OC(F)F)cc1` (stereo not drawn) came in with an inhibition of 31%.

`CC(C)(C)c1ccc(N(Cc2cccnc2)C(=O)c2ccoc2)cc1` had an inhibition of 24%.

The compound `CC(C)c1ccc(N(C(=O)Cc2cccnc2)C(C(=O)NC(C)(C)C)c2cccnc2)cc1` (stereo not drawn) had an inhibition of 41%.

In turn, `CC(=O)Nc1ccc(N(C(=O)Cn2ccnn2)C(C(=O)NC(C)(C)C)c2ccsc2)cc1` (stereo not drawn) came in with an inhibition of 27%.

The compound `Cc1noc(C)c1-c1ccc(N(C(=O)c2ccco2)C(C(=O)NC(C)(C)C)c2cccnc2)cc1` (stereo not drawn) displayed an inhibition of 28%.

The compound `CC(C)(C)NC(=O)C(c1cccnc1)N(C(=O)Cc1c[nH]c2ccccc12)c1ccc(C(C)(C)C)cc1` (stereo not drawn) registered an inhibition of 79%.

`CC(C)(C)NC(=O)C(c1cccnc1)N(C(=O)c1ccc[nH]1)c1ccc(C(C)(C)C)cc1` (stereo not drawn): the inhibition was 16%.

As for `CC(C)C(=O)Nc1ccc(N(C(=O)Cn2nnc3ccccc32)C(C(=O)NCc2ccccc2)c2cccc(F)c2)cc1` (stereo not drawn), the inhibition was found to be 62%.

As to `CC(=O)Nc1ccc(N(C(=O)Cn2nnc3ccccc32)C(C(=O)NC(C)(C)C)c2ccsc2)cc1` (stereo not drawn), the inhibition was 53%.

As to `CC(C)(C)NC(=O)C(c1cccnc1)N(C(=O)c1ncc[nH]1)c1ccc(C(C)(C)C)cc1` (stereo not drawn), the inhibition came out at 22%.

`CC(C)(C)NC(=O)C(c1ccsc1)N(C(=O)Cn1cnc2ccccc21)c1ccc(NS(C)(=O)=O)cc1` (stereo not drawn) registered an inhibition of 28%.

With `Cc1nc2ccccc2n1CC(=O)N(c1ccc(NC(=O)C(C)C)cc1)C(C(=O)NC(C)(C)C)c1ccsc1` (stereo not drawn), the inhibition stood at 14%.

The compound `CC(C)(C)NC(=O)C(c1cccnc1)N(C(=O)c1ccc(C(F)(F)F)nc1)c1ccc(C(C)(C)C)cc1` (stereo not drawn) registered an inhibition of 15%.

Consider `CC(C)(C)NC(=O)C(c1ccsc1)N(C(=O)c1ccc(C(F)(F)F)cn1)c1ccc(OCF)cc1` (stereo not drawn), for which the inhibition amounted to 18%.

In the case of `CC(C)C(=O)Nc1ccc(N(Cc2ccsc2)C(=O)Cn2cc([Si](C)(C)C)nn2)cc1`, the inhibition is 15%.

With `CC(C)(C)NC(=O)C(c1cccnc1)N(C(=O)Cc1cccnc1)c1ccc(C(C)(C)C)cc1` (stereo not drawn), the inhibition is 23%.

Regarding `CC(C)(C)NC(=O)C(c1ccsc1)N(C(=O)c1ccco1)c1ccc(F)cc1` (stereo not drawn), the inhibition worked out at 16%.

`CC(C)(C)NC(=O)C(c1ccsc1)N(C(=O)Cc1c[nH]c2ccccc12)c1ccc(C(C)(C)C)cc1` (stereo not drawn) yielded an inhibition of 31%.

The compound `O=C(Cn1nnc2ccccc21)N(Cc1ccsc1)c1ccc(NC(=O)C(F)(F)F)cc1` had an inhibition of 92%.

Turning to `CC(C)COc1ccc(N(C(=O)c2ccco2)C(C(=O)NC(C)(C)C)c2cccnc2)cc1` (stereo not drawn), the inhibition is 25%.

As to `CC(C)(C)NC(=O)C(c1cccnc1)N(C(=O)c1cccc2c1CCCC2)c1ccc(F)cc1` (stereo not drawn), the inhibition is 22%.

As to `CC(C)(C)NC(=O)C(c1cccnc1)N(C(=O)Cc1c[nH]c2ccccc12)c1ccc(F)cc1` (stereo not drawn), the inhibition was determined as 41%.

Regarding `CC(C)(C)NC(=O)C(c1cccnc1)N(C(=O)c1ccco1)C1CCCCC1` (stereo not drawn), the inhibition is 6%.

`CC(C)(C)NC(=O)C(c1cccnc1)N(C(=O)c1ccco1)c1ccc(-c2cncnc2)cc1` (stereo not drawn) registered an inhibition of 14%.

As to `CC(C)(C)NC(=O)C(c1cccnc1)N(C(=O)c1ccco1)c1ccc(-c2ccccn2)cc1` (stereo not drawn), the inhibition was 15%.

`CC(C)(C)NC(=O)[C@H](c1cccnc1)N(C(=O)c1ccco1)c1ccc(C(C)(C)C)cc1` displayed an inhibition of 65%.

Compound `CC(C)(C)NC(=O)C(c1cccnc1)N(C(=O)c1ccc(C#N)cc1)c1ccc(F)cc1` (stereo not drawn) had an inhibition of 53%.

In turn, `CC(C)(C)NC(=O)C(c1cccnc1)N(C(=O)c1ccco1)c1ccc(-c2c(F)cccc2F)cc1` (stereo not drawn) returned an inhibition of 23%.

As to `Cn1cnc(C(=O)N(c2ccc(C(C)(C)C)cc2)C(C(=O)NC(C)(C)C)c2cccnc2)c1` (stereo not drawn), the inhibition stood at 60%.

For the compound `CC(C)(C)NC(=O)C(c1cccnc1)N(C(=O)c1ccco1)c1ccc(-c2ccccc2)cc1` (stereo not drawn), the inhibition worked out at 22%.

For the compound `CC(C)c1ccc(N(C(=O)c2n[nH]c3ccccc23)C(C(=O)NC(C)(C)C)c2cccnc2)cc1` (stereo not drawn), the inhibition was 21%.

In turn, `CC(C)c1ccc(N(C(=O)c2n[nH]c3ccccc23)C(C(=O)NC(C)(C)C)c2ccsc2)cc1` (stereo not drawn) returned an inhibition of 11%.

On to `CC(C)C(=O)Nc1ccc(N(Cc2ccsc2)C(=O)Cn2nnc3ccccc32)cc1`, for which the inhibition amounted to 92%.

Compound `Cc1nccn1CC(=O)N(c1ccc(NC(=O)C(C)C)cc1)C(C(=O)NC(C)(C)C)c1ccsc1` (stereo not drawn) gave an inhibition of 18%.

`CCCOc1ccc(N(C(=O)c2ccco2)C(C(=O)NC(C)(C)C)c2cccnc2)cc1` (stereo not drawn) displayed an inhibition of 10%.

`CC(C)(C)NC(=O)C(c1ccsc1)N(C(=O)Cn1nnc2ccccc21)c1ccc(NC(=O)c2ccccc2)cc1` (stereo not drawn): the inhibition worked out at 79%.

Turning to `CC(C)(C)NC(=O)C(c1ccsc1)N(C(=O)Cc1c[nH]c2ccccc12)c1ccc(OCF)cc1` (stereo not drawn), the inhibition amounted to 25%.

The compound `CC(C)(C)NC(=O)C(c1cccnc1)N(C(=O)c1ccc(C#N)cc1)C1CC1` (stereo not drawn) displayed an inhibition of 23%.

Consider `CC(C)c1ccc(N(C(=O)c2ccc(C(F)(F)F)nc2)C(C(=O)NC(C)(C)C)c2cccnc2)cc1` (stereo not drawn), for which the inhibition came to 18%.

What is called inhibition is the percentage by which the read-out fell short of the control.
